In the supplement of paper PMC10307832:

Tests used:
Experiment in all cases: relative viability (nuclei count vs DMSO), 5 days (fraction); higher = more cells survive
Erlotinib + AZD7762 = compound: C#Cc1cccc(Nc2ncnc3cc(OCCOC)c(OCCOC)cc23)c1 [Erlotinib] + NC(=O)Nc1cc(-c2cccc(F)c2)sc1C(=O)N[C@H]1CCCNC1 [AZD7762] (partner 0.2 µM)
Summary of the method: (§1)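 For relative viability, nuclei counts in treated wells were divided by those in vehicle wells. Lung cancer cell lines had been pin-tool dosed in 1536-well plates the day after seeding and cultured for 5 days, then fixed and stained in one step (final 0.05% Triton X-100, 1% formaldehyde, 1 ug/ml Hoechst) and imaged at 4×. Doses were one drug alone or a fixed anchor-drug dose plus five library-drug doses (not always all listed) in √10 steps, and values are duplicate-plate medians.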

AT9283 + Lapatinib = compound: O=C(Nc1c[nH]nc1-c1nc2ccc(CN3CCOCC3)cc2[nH]1)NC1CC1 [AT9283] + CS(=O)(=O)CCNCc1ccc(-c2ccc3ncnc(Nc4ccc(OCc5cccc(F)c5)c(Cl)c4)c3c2)o1 [Lapatinib] (partner 2 µM)
Summary of the method: as §1

AT9283 + Decitabine = compound: O=C(Nc1c[nH]nc1-c1nc2ccc(CN3CCOCC3)cc2[nH]1)NC1CC1 [AT9283] + Nc1ncn([C@H]2C[C@H](O)[C@@H](CO)O2)c(=O)n1 [Decitabine] (partner 2 µM)
Summary of the method: as §1

Erlotinib + Luminespib = compound: C#Cc1cccc(Nc2ncnc3cc(OCCOC)c(OCCOC)cc23)c1 [Erlotinib] + CCNC(=O)c1noc(-c2cc(C(C)C)c(O)cc2O)c1-c1ccc(CN2CCOCC2)cc1 [Luminespib] (partner 0.01 µM)
Summary of the method: as §1

AT9283 + Luminespib = compound: O=C(Nc1c[nH]nc1-c1nc2ccc(CN3CCOCC3)cc2[nH]1)NC1CC1 [AT9283] + CCNC(=O)c1noc(-c2cc(C(C)C)c(O)cc2O)c1-c1ccc(CN2CCOCC2)cc1 [Luminespib] (partner 0.01 µM)
Summary of the method: as §1

| Cell Line | relative viability (Erlotinib + AZD7762; first compound 0.02 µM) | relative viability (Erlotinib + AZD7762; first compound 0.2 µM) | relative viability (Erlotinib + AZD7762; first compound 0.6325 µM) | relative viability (Erlotinib + AZD7762; first compound 2 µM) | relative viability (AT9283 + Lapatinib; first compound 0.003 µM) | relative viability (AT9283 + Lapatinib; first compound 0.03 µM) | relative viability (AT9283 + Lapatinib; first compound 0.09487 µM) | relative viability (AT9283 + Lapatinib; first compound 0.3 µM) | relative viability (AT9283 + Decitabine; first compound 0.003 µM) | relative viability (AT9283 + Decitabine; first compound 0.03 µM) | relative viability (AT9283 + Decitabine; first compound 0.09487 µM) | relative viability (AT9283 + Decitabine; first compound 0.3 µM) | relative viability (Erlotinib + Luminespib; first compound 0.02 µM) | relative viability (Erlotinib + Luminespib; first compound 0.2 µM) | relative viability (Erlotinib + Luminespib; first compound 0.6325 µM) | relative viability (Erlotinib + Luminespib; first compound 2 µM) | relative viability (AT9283 + Luminespib; first compound 0.003 µM) | relative viability (AT9283 + Luminespib; first compound 0.03 µM) | relative viability (AT9283 + Luminespib; first compound 0.09487 µM) | relative viability (AT9283 + Luminespib; first compound 0.3 µM) |
| --- | --- | --- | --- | --- | --- | --- | --- | --- | --- | --- | --- | --- | --- | --- | --- | --- | --- | --- | --- | --- |
| HCC-366 | 0.346 | 0.258 | 0.191 | 0.0996 | 1.01 | 0.0702 | 0.0449 | 0.0374 | 0.337 | 0.299 | 0.141 | 0.0851 |  |  |  |  |  |  |  |  |
| HCC-827 | 0.137 | 0.153 | 0.116 | 0.123 | 0.195 | 0.216 | 0.191 | 0.164 | 0.235 | 0.234 | 0.258 | 0.214 | 0.238 | 0.218 | 0.211 | 0.182 | 0.608 | 0.539 | 0.328 | 0.185 |
| HOP-62 | 0.702 | 0.638 | 0.541 |  | 1.06 | 0.984 | 0.47 | 0.176 | 0.212 | 0.217 | 0.152 | 0.165 | 0.988 | 0.949 | 0.855 | 0.881 | 0.916 | 0.783 | 0.279 | 0.292 |
| IA-LM |  |  |  |  | 0.793 | 0.27 | 0.0791 | 0.0891 |  |  |  |  |  |  |  |  |  |  |  |  |
| LCLC-103H | 0.801 | 0.875 | 0.874 | 0.669 |  |  |  |  | 0.755 | 0.774 | 0.444 | 0.35 | 0.99 | 0.884 | 1.05 | 0.821 | 0.829 | 0.755 | 0.313 | 0.304 |
| NCI-H520 |  |  |  |  | 0.77 | 0.295 | 0.21 | 0.196 | 0.381 | 0.297 | 0.272 | 0.171 | 0.242 | 0.23 | 0.253 | 0.248 | 0.247 | 0.23 | 0.204 | 0.254 |
| NCI-H522 | 0.812 | 0.893 | 1.02 | 0.833 |  |  |  |  | 0.67 | 0.607 | 0.569 | 0.479 | 1.16 | 0.954 | 1.15 | 0.965 | 1.14 | 0.99 | 0.467 | 0.51 |
| NCI-H661 |  |  |  |  | 0.471 | 0.518 | 0.276 | 0.286 | 0.579 | 0.422 | 0.406 | 0.272 | 0.903 | 0.933 | 0.882 | 0.736 | 0.916 | 0.399 | 0.304 | 0.313 |
| NCI-H1299 |  |  |  |  | 1.02 | 0.509 | 0.404 | 0.343 |  |  |  |  |  |  |  |  |  |  |  |  |
| NCI-H1563 |  |  |  |  | 0.941 | 0.811 | 0.843 | 0.701 |  |  |  |  | 0.527 | 0.495 | 0.512 | 0.477 | 0.5 | 0.527 | 0.443 | 0.45 |
| NCI-H1623 |  |  |  |  |  |  |  |  |  |  |  |  | 0.414 | 0.425 | 0.352 | 0.336 | 0.466 | 0.559 | 0.437 | 0.37 |
| NCI-H1648 |  | 0.649 | 0.64 | 0.465 |  |  |  |  | 0.515 | 0.503 | 0.409 | 0.303 |  |  |  |  |  |  |  |  |
| NCI-H1650 |  |  |  |  | 0.697 | 0.287 | 0.225 | 0.115 | 0.565 | 0.499 | 0.387 | 0.238 | 0.218 | 0.188 | 0.206 | 0.21 | 0.21 | 0.182 | 0.219 | 0.231 |
| NCI-H1703 | 0.113 | 0.133 | 0.142 | 0.115 | 1.24 | 0.277 | 0.31 | 0.354 |  |  |  |  |  |  |  |  |  |  |  |  |
| NCI-H2009 |  |  |  |  | 1.01 | 0.337 | 0.31 | 0.305 | 0.378 | 0.358 | 0.225 | 0.222 | 1.04 | 1.03 | 1.09 | 0.944 | 1.04 | 0.978 | 0.736 | 0.325 |
| NCI-H2023 |  |  |  |  | 0.778 | 0.133 | 0.122 | 0.0743 | 0.202 | 0.202 | 0.127 | 0.0969 | 0.721 | 0.72 | 0.81 | 0.629 | 0.954 | 0.742 | 0.361 | 0.11 |
| NCI-H2228 |  |  |  |  | 1.06 | 0.367 | 0.115 | 0.141 |  |  |  |  | 0.151 | 0.131 | 0.149 | 0.121 | 0.152 | 0.123 | 0.162 | 0.11 |
| NCI-H2342 | 0.453 | 0.566 | 0.502 |  |  |  |  |  | 0.653 | 0.766 | 0.655 | 0.455 | 0.731 | 0.609 | 0.573 | 0.739 | 0.795 | 0.93 | 0.499 | 0.348 |
| SK-LU-1 |  |  |  |  | 0.933 | 0.371 | 0.274 | 0.272 | 0.62 | 0.423 | 0.415 | 0.407 | 0.21 | 0.208 | 0.188 | 0.202 | 0.203 | 0.203 | 0.209 | 0.157 |
| SK-MES-1 |  |  |  |  | 0.427 | 0.547 | 0.349 | 0.263 | 0.396 | 0.334 | 0.306 | 0.138 | 0.77 | 0.453 | 0.486 | 0.461 | 0.885 | 0.821 | 0.405 | 0.22 |
| SW 900 | 0.783 | 0.52 | 0.557 | 0.443 |  |  |  |  | 0.422 | 0.442 | 0.349 | 0.232 | 0.201 | 0.172 | 0.178 | 0.173 | 0.178 | 0.19 | 0.172 | 0.171 |
| SW 1573 |  |  |  |  | 1.15 | 0.494 | 0.188 | 0.244 | 0.394 | 0.175 | 0.171 | 0.143 | 0.327 | 0.217 | 0.214 | 0.183 | 0.199 | 0.148 | 0.142 | 0.169 |
| UMC-11 |  |  |  |  | 0.978 | 0.142 | 0.128 | 0.202 | 0.57 | 0.217 | 0.261 | 0.201 | 1.05 | 0.93 | 1.32 | 1.11 | 1.05 | 0.161 | 0.16 | 0.165 |
